Reference: patent US20240246946A1, “MODULATORS OF TREX1” (Constellation Pharmaceuticals, Inc., priority 2021, published 2024)

What was measured:
[1] = target: T1, human TREX2 (residues M44-A279) (Homo sapiens, UniProt Q9BQ50); test: hTREX2 Biochemical Assay (fluorescence, dsDNA substrate degradation); conditions: biochemical selectivity for hTREX1 vs hTREX2
T1 construct: human TREX2 (residues M44-A279, expressed in E. coli); made in house; host or cells: E. coli
T1 sequence (Q9BQ50 44-279 isoform Q9BQ50-1): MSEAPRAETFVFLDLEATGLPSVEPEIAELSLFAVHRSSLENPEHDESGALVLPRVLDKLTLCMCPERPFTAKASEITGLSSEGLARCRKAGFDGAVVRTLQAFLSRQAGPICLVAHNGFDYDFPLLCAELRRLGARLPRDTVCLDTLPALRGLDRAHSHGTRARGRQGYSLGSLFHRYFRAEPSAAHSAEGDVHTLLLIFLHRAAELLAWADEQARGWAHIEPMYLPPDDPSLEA
How it was run: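 N-His-Tev E. coli enzyme (50 pM) pre-incubated with compound 4 h at 25 °C, then 60 nM TEX615/quencher dsDNA added; 18 h at 25 °C, pH 7.4 Tris buffer with 5 mM MgCl2, 1.0% DMSO. EDTA-quenched; fluorescence 570 ex/615 em from liberated fluorophore, 10-point dose-response.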

full length human TREX1 = target: T2, full length human TREX1 (Homo sapiens, UniProt Q9NSU2); test: hTREX1 Biochemical Assay (fluorescence, dsDNA substrate degradation); conditions: biochemical, read-out: hTREX1 IC50
T2 construct: N-terminally His-Tev tagged full length human TREX1; made in house; host or cells: E. coli
T2 sequence (Q9NSU2 1-314): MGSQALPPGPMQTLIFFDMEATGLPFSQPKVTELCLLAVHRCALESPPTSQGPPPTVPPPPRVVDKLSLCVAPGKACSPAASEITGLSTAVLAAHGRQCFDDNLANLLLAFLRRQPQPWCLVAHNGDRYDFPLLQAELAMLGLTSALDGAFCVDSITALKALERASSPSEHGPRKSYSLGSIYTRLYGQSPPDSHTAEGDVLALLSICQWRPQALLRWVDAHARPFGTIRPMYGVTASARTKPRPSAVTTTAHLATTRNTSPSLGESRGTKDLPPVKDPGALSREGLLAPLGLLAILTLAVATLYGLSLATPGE
How it was run: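 Cleavage of 60 nM TEX615/quencher-labelled dsDNA in pH 7.4 Tris buffer with 5 mM MgCl2, 1.0% DMSO, run 18 hours at 25° C, EDTA-quenched; fluorescence read-out.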

full length mouse TREX1 = target: T3, full length mouse TREX1 (Mus musculus, UniProt Q91XB0); test: mTREX1 Biochemical Assay (fluorescence, dsDNA substrate degradation); conditions: biochemical, read-out: mTREX1 IC50
T3 construct: N-terminally His-Tev tagged full length mouse TREX1; made in house; host or cells: E. coli
T3 sequence (Q91XB0 1-314): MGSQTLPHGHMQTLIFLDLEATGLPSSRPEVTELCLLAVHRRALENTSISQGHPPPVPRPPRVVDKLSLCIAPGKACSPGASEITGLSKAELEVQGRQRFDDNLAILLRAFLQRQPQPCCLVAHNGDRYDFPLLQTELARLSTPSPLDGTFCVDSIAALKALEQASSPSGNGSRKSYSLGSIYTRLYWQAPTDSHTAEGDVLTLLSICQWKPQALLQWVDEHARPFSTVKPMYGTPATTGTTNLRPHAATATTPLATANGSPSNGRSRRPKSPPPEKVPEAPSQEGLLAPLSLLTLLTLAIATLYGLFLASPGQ
How it was run: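 Reaction run 18 h at 25° C. with 60 nM TEX615/quencher-labelled dsDNA and 6 pM mouse TREX1 in Tris buffer (pH 7.4, 5 mM MgCl2, 1.0% DMSO), enzyme having sat 4 h with compound across 10 concentrations. EDTA quench; substrate degradation measured as fluorescence increase.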

| SMILES | hTREX1 vs hTREX2 selectivity [1] | IC50 (full length human TREX1) [nM] | IC50 (full length mouse TREX1) [nM] |
| --- | --- | --- | --- |
| Cc1nccc(C(c2ccccc2C#N)C(C)c2nc(C(=O)Nc3cnoc3)c(O)c(=O)n2C)n1 (single isomer, unassigned) [Example 83 D1E2] | A (A = <25 fold selective for hTREX1) | > 10 | > 10 |
| CC(c1nc(C(=O)Nc2cnoc2)c(O)c(=O)n1C)C(c1cnn(CC(C)(C)O)c1)c1ccccc1Cl (single isomer, unassigned) [Example 86 D2E1] | A (A = <25 fold selective for hTREX1) | > 10 | > 10 |
| CC(c1nc(C(=O)Nc2cnoc2)c(O)c(=O)n1C)C(c1cnn(CC(C)(C)C#N)c1)c1cc(F)ccc1Cl (single isomer, unassigned) [Example 99 D1E2] | B (B = 25 to 50-fold selective for hTREX1) | 1 to 10 | 1 to 10 |
| Cc1ccc(C(c2ccccc2C#N)C(C)c2nc(C(=O)Nc3cnoc3)c(O)c(=O)n2C)cn1 (single isomer, unassigned) [Example 5 D2E1] | B (B = 25 to 50-fold selective for hTREX1) | > 10 | > 10 |
| CC(c1nc(C(=O)Nc2cnoc2)c(O)c(=O)n1C)C(c1nnn(C)n1)c1ccccc1C#N (single isomer, unassigned) [Example 79 D2E1] | A (A = <25 fold selective for hTREX1) | 1 to 10 | > 10 |
| CC(c1nc(C(=O)Nc2cnoc2)c(O)c(=O)n1C)C(c1cnn(C2COC2)c1)c1ccccc1C#N (single isomer, unassigned) [Example 106 D2E1] | B (B = 25 to 50-fold selective for hTREX1) | > 10 | > 10 |
| CC(c1nc(C(=O)Nc2cnoc2)c(O)c(=O)n1C)C(c1cnn(CC(C)(C)O)c1)c1ccccc1Cl (single isomer, unassigned) [Example 86 D1E2] | A (A = <25 fold selective for hTREX1) | 1 to 10 | > 10 |
| CC(c1nc(C(=O)Nc2cnoc2)c(O)c(=O)n1C)C(c1cnn(CCCN(C)C)c1)c1ccccc1C#N (single isomer, unassigned) [Example 34 D2E1] | C (C = >50 fold selective for hTREX1) | > 10 | > 10 |
| Cc1nnc(C(c2ccccc2Cl)C(C)c2nc(C(=O)Nc3cnoc3)c(O)c(=O)n2C)o1 (single isomer, unassigned) [Example 156 D2E2] | B (B = 25 to 50-fold selective for hTREX1) | 1 to 10 | > 10 |
| CC(c1nc(C(=O)Nc2cnoc2)c(O)c(=O)n1C)C(c1cocn1)c1ccccc1C#N (single isomer, unassigned) [Example 50 D2E1] | C (C = >50 fold selective for hTREX1) | > 10 | > 10 |

Second part, the molecule after the results:

| hTREX1 vs hTREX2 selectivity [1] | IC50 (full length human TREX1) [nM] | IC50 (full length mouse TREX1) [nM] | SMILES |
| --- | --- | --- | --- |
| A (A = <25 fold selective for hTREX1) | > 10 | > 10 | CC(c1nc(C(=O)Nc2cnoc2)c(O)c(=O)n1C)C(c1ccccc1Cl)n1cc2ccccc2n1 (single isomer, unassigned) [Example 141 D1E2] |
| A (A = <25 fold selective for hTREX1) | > 10 | > 10 | Cc1ccn(C(c2ccccc2C#N)C(C)c2nc(C(=O)Nc3cnoc3)c(O)c(=O)n2C)n1 (single isomer, unassigned) [Example 132 D1E1] |
| A (A = <25 fold selective for hTREX1) | > 10 | > 10 | COCCn1nc(C)c(C(c2cc(F)ccc2C#N)C(C)c2nc(C(=O)Nc3cnoc3)c(O)c(=O)n2C)c1C (single isomer, unassigned) [Example 110 D1E2] |
| A (A = <25 fold selective for hTREX1) | > 10 | > 10 | CCn1c(C(C)C(c2cnn(C)c2)c2ccccc2C#N)nc(C(=O)Nc2cnoc2)c(O)c1=O (single isomer, unassigned) [Example 149 D2E1] |
